Results reported in PubChem BioAssay (NCI).
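Step 1: Grow cells in 96-well plates. Step 2: Expose to compound for 48 hours at 5 concentrations. Step 3: Interpolate endpoints linearly; if unreached, use highest concentration. TGI is the concentration that stops growth completely.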 Where a SMILES comes first, the peptide text is derived from it. [ ]: non-standard residue; d: D form. Ava = NCCCCC(=O)O; Mpa = O=C(O)CCS

Experiments:
Test in all cases: NCI anticancer screen, dose series, 48 h
[1] = test system: KM12 colon
[2] = test system: UACC-257 melanoma
[3] = test system: HL-60(TB) leukemia
[4] = test system: HCC-2998 colon
[5] = test system: IGROV1 ovarian
[6] = test system: EKVX NSCLC
[7] = test system: SF-268 CNS
[8] = test system: SNB-75 CNS
[9] = test system: SK-MEL-28 melanoma
[10] = test system: MCF7 breast
[11] = test system: HT29 colon
[12] = test system: PC-3 prostate

Structure (SMILES) | TGI [1] | TGI [2] | TGI [3] | TGI [4] | TGI [5] | TGI [6] | TGI [7] | TGI [8] | TGI [9] | TGI [10] | TGI [11] | TGI [12]
O=[N+]([O-])c1ccc(C[P+]2(c3ccccc3)CCCCC2)cc1 (tested in a mixture with another compound) | > 100 µM | > 100 µM | > 100 µM | > 100 µM | > 100 µM | > 100 µM | > 100 µM | > 100 µM | > 100 µM |  |  | 
CC1OC(NCCNCCNC2OC(C)C(O)C(O)C2O)C(O)C(O)C1O (stereo not given) | > 100 µM | > 100 µM | > 100 µM |  | > 100 µM | > 100 µM | > 100 µM | > 100 µM | > 100 µM | > 100 µM | > 100 µM | > 100 µM
CC1=C(C)C(=O)OC(C(C)(O)C2(O)CC3OC34C3CC(O)C56OC5C=CC(=O)C6(C)C3CCC42C)C1 (stereo not given) | 7.54 µM | 4.7 µM |  | 2.73 µM | 6.09 µM | 10.4 µM | 7.96 µM | 20.3 µM | 4.24 µM | > 39.3 µM | 4.2 µM | 14.2 µM
COc1ccc(-c2c(C#N)c(N)[nH]c(=S)c2C#N)cc1 | > 100 µM | > 100 µM | 69.2 µM | 72.2 µM | > 100 µM | > 100 µM | > 100 µM |  | > 100 µM | > 100 µM | > 100 µM | > 100 µM
COc1ccc(C2CC(c3sc(Nc4ccc(C)cc4)nc3C)=NN2)cc1 (stereo not given) | 29.5 µM | 32.6 µM | 24.6 µM | 30.1 µM | > 56.9 µM | 47.8 µM | 37.4 µM | 34.1 µM | 33.6 µM | 31.7 µM | 25.6 µM | 
CCC(C)C(Nc1c2ccccc2nc2c(C(=O)NCCN(C)C)cccc12)C(=O)O (stereo not given) | > 100 µM |  |  |  | > 100 µM | 77 µM | 39.4 µM | 61.8 µM | 67.1 µM | > 100 µM | 17.1 µM | > 100 µM
CC(C)CC1c2[nH]c3ccccc3c2C[C@H]2C(=O)NC(Cc3c[nH]c4ccccc34)C(=O)N12 (stereo not given in full) | 28.8 µM | 28.9 µM | 40.9 µM |  | 36 µM | 45.4 µM | 56.3 µM |  | 40.5 µM | > 100 µM | 31.2 µM | 41.9 µM
CC(NC(=O)CCS)C(=O)NC(C)C(=O)NC(Cc1c[nH]c2ccccc12)C(=O)NC(Cc1c[nH]cn1)C(=O)NC(CO)C(=O)NC(Cc1c[nH]c2ccccc12)C(=O)NCCCCC(=O)NC(C)C(=O)NC(CCC(N)=O)C(=O)NC(CCCCN)C(=O)NC(C)C(=O)NC(CCCNC(=N)N)C(=O)NC(CCCCN)C(N)=O (stereo not given) ([Mpa]AAWHSW[Ava]AQKARK-NH2; configuration not given here) | 88.7 µM | 63.1 µM | 65.4 µM |  | > 100 µM | > 100 µM | > 100 µM | > 100 µM | > 100 µM | > 100 µM | > 100 µM | > 100 µM
COC(=O)c1ccc(OCCn2nnc(C(=O)NN)c2C(=O)NN)cc1 | > 100 µM | > 100 µM | > 100 µM | > 100 µM |  | > 100 µM |  |  | > 100 µM | > 100 µM | > 100 µM | > 100 µM
CCOC(=O)/C(C(N)=O)=C(\O)C(=O)/C=C(\O)c1ccc(Cl)cc1 | 36.9 µM | 32.2 µM |  |  | 36.2 µM | 58.3 µM | 59.9 µM | 31 µM | 63.2 µM | 62.4 µM | 41.4 µM | 38.1 µM
CCN(CC)Cc1cc(N=Nc2c(O)ccc3c(N=Nc4ccc(O)c(CN(CC)CC)c4)c(O)ccc23)ccc1O | > 21.9 µM | 16.5 µM |  | 5.18 µM | 19 µM | 21.2 µM | 33.8 µM | 27.7 µM | 20 µM | 13 µM | 9.31 µM | > 41.1 µM
O=C1/C(=C/c2cccc([N+](=O)[O-])c2)N=C(c2ccccc2)N1c1nc2ccc(Sc3ccccc3)cc2[nH]1 | > 100 µM | > 100 µM |  | > 100 µM | > 100 µM | > 100 µM | > 100 µM | > 100 µM | > 100 µM | > 100 µM | > 100 µM | > 100 µM
COc1cc(/C=C/c2ccc(OC)c(OC)c2)oc(=O)c1 | > 250 µM | > 250 µM | > 184 µM | > 250 µM | > 250 µM | > 116 µM | > 250 µM | > 227 µM | > 250 µM | > 250 µM | > 250 µM | 
O=C(O)c1ccc2c(O)c(O)ccc2c1 | 31.3 µM | 50.5 µM |  | > 60.9 µM | 38.2 µM | 47.7 µM | 22.3 µM | 22.4 µM | > 100 µM | > 100 µM | 21.2 µM | > 78.8 µM
COc1ccc(-c2cc(-c3ccc(C)cc3)n(C3OC(COC(C)=O)C(OC(C)=O)C(OC(C)=O)C3OC(C)=O)c(=S)c2C#N)cc1 (stereo not given) | > 100 µM |  | > 100 µM | > 100 µM | > 100 µM | > 100 µM | > 100 µM | 92 µM | > 100 µM | > 100 µM | > 100 µM | > 100 µM
CC1=NNC(=O)C1C1(C(=O)O)CC(c2c[nH]c3ccccc23)=NC(=S)N1 (stereo not given) | 36.9 µM | > 100 µM | 90.1 µM |  | > 100 µM | > 100 µM | > 100 µM | 62.9 µM | > 100 µM |  | 78.9 µM | > 100 µM
CN(C)CCNC(=O)c1cccc2c1C(=O)c1ccccc1C2=O | > 100 µM | 54.4 µM | 57.8 µM | > 91.6 µM | > 76.5 µM | > 100 µM | > 100 µM | > 100 µM | > 100 µM | > 79 µM | > 86.6 µM | 
CC(O)C(CO)NC(=O)C1CSSCC(NC(=O)C(N)Cc2ccccc2)C(=O)NC(Cc2ccccc2)C(=O)NC(Cc2c[nH]c3ccccc23)C(=O)NC(CCCCN)C(=O)NC(C(C)O)C(=O)N1 (stereo not given) | > 100 µM | > 100 µM | > 100 µM |  | > 100 µM | > 100 µM | > 100 µM | > 100 µM | > 100 µM | > 100 µM | > 100 µM | > 100 µM
CN(C)N1C(=O)C(=O)N(c2cccc3ccccc23)C1=O | > 10 µM |  | > 10 µM | > 10 µM | > 10 µM | > 10 µM | > 10 µM | > 10 µM | > 10 µM | > 10 µM | > 10 µM | > 10 µM
